Legend:
Rattus norvegicus = experiment: Antiinflammatory activity in rat assessed as inhibition of carrageenan-induced paw edema at 150 mg/kg; format: functional
Oryctolagus cuniculus = experiment: Antiinflammatory activity in rabbit assessed as inhibition of edema at 200 ug per site by reversed passive arthus test; format: functional

SMILES: CC(C(=O)O)c1ccc2c(c1)C[C@H]1CCCC[C@@H]21 (stereo not given in full)
- inhibition in vivo at 150 mg/kg (Rattus norvegicus): 63%
- inhibition (INH) (Oryctolagus cuniculus): 55%

SMILES: CC(C(=O)O)c1ccc2c(c1)Cc1ccccc1-2 (stereo not given) [CICLOPROFEN]
- inhibition in vivo at 150 mg/kg (Rattus norvegicus): 66%
- inhibition (INH) (Oryctolagus cuniculus): 36%

SMILES: CC(C)Cc1ccc(C(C)C(=O)O)cc1 (stereo not given) [IBUPROFEN]
- inhibition in vivo at 150 mg/kg (Rattus norvegicus): 56%
- inhibition (INH) (Oryctolagus cuniculus): 54%

SMILES: COc1ccc2c(c1)c(CC(=O)O)c(C)n2C(=O)c1ccc(Cl)cc1 [INDOMETHACIN]
- inhibition (INH) (Oryctolagus cuniculus): 57%

SMILES: COc1ccc2cc([C@H](C)C(=O)O)ccc2c1 [NAPROXEN]
- inhibition (INH) (Oryctolagus cuniculus): 55%

SMILES: CCCCC1C(=O)N(c2ccccc2)N(c2ccccc2)C1=O [PHENYLBUTAZONE]
- inhibition in vivo at 150 mg/kg (Rattus norvegicus): 59%
- inhibition (INH) (Oryctolagus cuniculus): 44%
